Results: patent US12263156B2, “Use of small molecule inhibitors of the BfrB:Bfd interaction in biofilms” (priority 2020, dated 2025)

What was measured:
[1] = test system: EYFP-expressing P. aeruginosa PAO1 biofilms; assay: Flow cell biofilm assay (CLSM imaging, COMSTAT biomass); type: cell-based, Pseudomonas aeruginosa; details: 3-day old biofilms, 24 h; KM-5-25 40 and 80 μM, KM-5-66 15, 30 and 50 μM
Method: ACS Infect. Dis. […] The experimental shear stress was 0.14-dyn/cm^2 (shear rate=14 s^−1, pressure=7.1 mbar, flow rate=0.4 mL/min) and the switch time was set to 540 s. […] During biofilm growth and challenge with antibacterial, the culture medium in the reservoirs was removed every 12 hours and replaced with fresh pre-warmed medium. […] The biofilms were imaged with the aid of a Leica TCS SP8 confocal microscope (Leica Microsystems, Germany) using a HC PL apo CS2 63×/1.4 oil objective. […] Image stacks were acquired with a z-step size of 0.3 μm at randomly chosen positions. The Leica Application Suite X (LAS-X) software was used for image stack processing.^54 Quantitative analysis of biofilm biomass was performed using the COMSTAT computer program^54 and the Otsu method of automatic thresholding.^85
The treated biofilms were counterstained with the cell impermeable fluorescent nucleic acid dye Sytox Red and then imaged with the aid of confocal laser scanning microscopy (CLSM).

[2] = test system: EYFP-expressing P. aeruginosa PAO1 pellicle biofilms; assay: Pellicle biofilm assay (CLSM imaging, COMSTAT biomass); type: cell-based, Pseudomonas aeruginosa; details: 2-day old pellicles, 24 h; KM-5-25 80 μM, KM-5-66 50 μM (about 1.2× the IC50)
Method: (§1) Pellicle biofilms of EYFP-expressing P. aeruginosa PAO1 or clinical isolates were grown in PI media supplemented with 20 μM Fe. Starter cultures were diluted to OD600=0.001 in 4 mL media, placed in 35×10 mm petri dishes and incubated statically at 30° C. for 48 hours. The pellicles were transferred onto circular (1.5 cm diameter) glass coverslips by gently allowing the surface of a coverslip to contact a pellicle. The pellicle-adhered coverslip was washed in PBS and then deposited on top of 1.5 mL of AB challenge media contained in a well of a 12-well microplate, with the pellicle exposed to the media. […] The coverslip-adhered pellicles were exposed to challenge media at 30° C. for 24 hours, changing the challenge media every 12 hours by transferring the pellicle-adhered coverslip to a new plate containing pre-warmed challenge media.
Excess fluorescent dye was washed with PBS, the coverslip was mounted on a glass slide using 5 μL of SlowFade (Invitrogen, Carlsbad, CA) and the edges sealed with fingernail polish. CLSM image stacks (z-step size of 0.3 μm) were acquired with the aid of a Leica TCS SP8 microscope, as described above. Quantitative analysis was performed by determination of pellicle biomass using COMSTAT^54 and the Otsu method of automatic thresholding.^85
To expand the observations made with flow cell biofilms into a second biofilm model, the susceptibility of biofilms grown at the air-liquid interface (pellicles) was also studied.^56-57 Pellicle biofilms (henceforth pellicles) are an attractive alternative platform to study biofilms because pellicles are amenable to imaging by CLSM and to harvesting, which can be desirable for additional biofilm analysis.^26 To determine the susceptibility of pellicles to antibiotics or inhibitors of the BfrB-Bfd complex, 2-day old pellicles of EYFP-expressing P. aeruginosa cells were cultured in PI media supplemented with 20 μM Fe. The pellicles were transferred onto glass coverslips by allowing the surface of the coverslip to contact a pellicle.

[3] = test system: EYFP-expressing P. aeruginosa PAO1 pellicle biofilms; assay: Determination of viable cells (CFU/mL) in pellicle biofilms; details: for % survival relative to cells in the pre-treated biofilm / viable cell count as % of the cells in the untreated pellicle / % survival, combination treatment: 24 h; for viable cell count as % of the cells in the untreated pellicle: KM-5-25 40 μM, KM-5-66 20 μM; for relative compound activity (rank order): pellicles treated 24 h with 50 μM of each analog
Method: as §1
Pellicle biofilms were grown as described above. Planktonic and loosely attached cells were washed (3 times) by immersing the coverslip-adhered pellicles (biofilm facing up) into a well of a 12-well plate containing 3 mL of PBS, and incubating (5 min) with gentle rocking. To remove the pellicle from the coverslip, break the extracellular matrix and release cells from the biofilm, the coverslip-adhered pellicle was placed in a 50 mL conical tube containing a 2 mL suspension of zirconia beads (0.1 mm diameter, BioSpec Products), 10 mL PBS, 0.2 μg/mL alginate lyase and 0.2 μg/mL DNAse. The resultant mixture was incubated at room temperature for 3 min, followed by vigorous vortexing for 4 min. After sedimentation of the zirconia beads, a 100 μL aliquot was used for serial dilution and plating on PIA plates for subsequent enumeration of viable cells (CFU/mL).
To assess the efficacy of antibiotics and compounds with an approach complementary to imaging with CLSM, dispersing biofilm cells for subsequent enumeration of viable cells (CFU/mL) was resorted to. […] The biofilms were then harvested, and the cells dispersed into sterile PBS by vortexing in the presence of zirconia beads, prior to plating the cell suspensions for subsequent enumeration of CFU/mL. […] A characteristic of cells in the VBNC state is their inability to develop into colonies on routine culture media, even though the cells remain viable for long periods of time.^58-59 Evidence that bacterial cells can enter the VBNC has been obtained by several distinct methods,^59 one of which is the utilization of bacteria engineered to constitutively express bioluminescent proteins, and using the bioluminescence as a reporter of metabolic activity.

[4] = 0.6× the IC50 (KM-5-25 40 μM; KM-5-66 30 μM)
[5] = 1.2× the IC50 (KM-5-25 80 μM; KM-5-66 50 μM)
[6] = analog at 1.2× the IC50 combined with colistin at 25× the MIC
[7] = analog at 1.2× the IC50 combined with colistin at 25× the MIC (20 μM)
[8] = analog at 1.2× the IC50 combined with colistin at 50× the MIC
[9] = analog at 1.2× the IC50 combined with colistin at 50× the MIC (40 μM)
[10] = analog at 1.2× the IC50 combined with tobramycin at 25× the MIC
[11] = analog at 1.2× the IC50 combined with tobramycin at 50× the MIC

SMILES	killing of flow cell biofilm cells (CLSM images) [1]	cells in the pellicle treated (killed), COMSTAT [2] [%]	% survival relative to cells in the pre-treated biofilm ([3]; 0.3× the IC50 (KM-5-66 15 μM))	% survival relative to cells in the pre-treated biofilm [3, 4] [%]	% survival relative to cells in the pre-treated biofilm [3, 5] [%]	viable cell count as % of the cells in the untreated pellicle [3] [%]	log reduction of viable cells relative to colistin alone [3, 6]	% survival, combination treatment [3, 7] [%]	log reduction of viable cells relative to colistin alone [3, 8] [log]	% survival, combination treatment [3, 9] [%]	log reduction of viable cells relative to tobramycin alone [3, 10]	% survival, combination treatment [3, 10] [%]	log reduction of viable cells relative to tobramycin alone [3, 11] [log]	% survival, combination treatment [3, 11] [%]	relative compound activity (rank order) [3]
O=C1NC(=O)c2c(NCCCc3cc(O)cc(Cl)c3)cccc21 [KM-5-66]	concentration dependent manner	~85	approximately 57%	~21	~15	37	approximately 1.7 log	~0.3	~1.9	~0.02	approximately 1.5 log	5	~2	1	KM-5-66>KM-5-25>16>11
O=C1NC(=O)c2c(NCc3cc(Cl)ccc3O)cccc21 [KM-5-25]	concentration dependent manner	~85	–	~38	~25	42	~1 log	~1	~0.7	~0.5	approximately 2.5 log	~0.5	~4.7	~0.003	KM-5-66>KM-5-25>16>11
